Laboratory results reported in ChEMBL document CHEMBL3763039, “Development and Characterization of Potent Cyclic Acyldepsipeptide Analogues with Increased Antimicrobial Activity” (2016).
In brackets after ≈: the same amount, converted by molar mass. Where a SMILES comes first, the peptide text is derived from it. Bridges are numbered along the chain shown (N, C = ends). [ ]: non-standard residue; d: D form. The star is where a group is joined. 2Nal = N[C@@H](Cc1ccc2ccccc2c1)C(=O)O; Pro(4R-Me) = C[C@H]1CN[C@H](C(=O)O)C1; Bta = N[C@@H](Cc1csc2ccccc12)C(=O)O; Heptenoyl(2E) = CCCC/C=C/C(=O)*; Cha = N[C@@H](CC1CCCCC1)C(=O)O; Pip = O=C(O)[C@@H]1CCCCN1; Abu = CC[C@H](N)C(=O)O

Key:
Assay type in all cases: functional
[1] = system: Bacillus subtilis; test: Antibacterial activity against Bacillus subtilis PY79 incubated for 16 to 18 hrs by broth microdilution method
[2] = system: Staphylococcus aureus; test: Antibacterial activity against methicillin-resistant Staphylococcus aureus 1784A incubated for 16 to 18 hrs by broth microdilution method
[3] = system: Escherichia coli; test: Antibacterial activity against Escherichia coli MC4100 incubated for 16 to 18 hrs by broth microdilution method
[4] = system: Streptococcus pneumoniae; test: Antibacterial activity against Streptococcus pneumoniae D39 incubated for 16 to 18 hrs by broth microdilution method
[5] = system: Pseudomonas aeruginosa; test: Antibacterial activity against Pseudomonas aeruginosa PAO1 incubated for 16 to 18 hrs by broth microdilution method
[6] = system: Staphylococcus aureus; test: Antibacterial activity against Staphylococcus aureus subsp. aureus Newman clinical isolate incubated for 16 to 18 hrs by broth microdilution method
[7] = system: Enterococcus faecalis; test: Antibacterial activity against vancomycin-resistant Enterococcus faecalis V583 incubated for 16 to 18 hrs by broth microdilution method
[8] = system: Staphylococcus aureus; test: Antibacterial activity against Staphylococcus aureus ATCC 29213 incubated for 16 to 18 hrs by broth microdilution method
[9] = system: Neisseria gonorrhoeae; test: Antibacterial activity against chloramphenicol-resistant Neisseria gonorrhoeae N.279 incubated for 16 to 18 hrs by broth microdilution method
[10] = system: Neisseria meningitidis; test: Antibacterial activity against Neisseria meningitidis H44/76 incubated for 16 to 18 hrs by broth microdilution method
[11] = system: Escherichia coli; test: Antibacterial activity against Escherichia coli MC4100 expressing lptD-4213 incubated for 16 to 18 hrs by broth microdilution method
[12] = system: Listeria innocua; test: Antibacterial activity against Listeria innocua incubated for 16 to 18 hrs by broth microdilution method

Row | Structure (SMILES) | MIC [1] | MIC [2] | MIC [3] | MIC [4] | MIC [5] | MIC [6] | MIC [7] | MIC [8] | MIC [9] | MIC [10] | MIC [11] | MIC [12]
1 | C[C@@H]1C[C@H]2C(=O)O[C@@H](C)[C@H](NC(=O)[C@H](Cc3cc(F)cc(F)c3)NC(=O)/C=C/CCCCC(=O)O)C(=O)N3CCC[C@H]3C(=O)N3CCCC[C@H]3C(=O)N[C@@H](C)C(=O)N2C1 | 16 µg/mL (≈ 19.3 µM) | 64 µg/mL (≈ 77.2 µM) | > 128 µg/mL | 0.125 µg/mL (≈ 0.151 µM) | > 128 µg/mL | 64 µg/mL (≈ 77.2 µM) | 8 µg/mL (≈ 9.65 µM) | 32 µg/mL (≈ 38.6 µM) | 1 µg/mL (≈ 1.21 µM) | 4 µg/mL (≈ 4.83 µM) | > 128 µg/mL | 0.5 µg/mL (≈ 0.603 µM)
2 | C[C@@H]1C[C@H]2C(=O)O[C@@H](C)[C@H](NC(=O)[C@H](Cc3cc(F)cc(F)c3)NC(=O)/C=C/CC3CC3)C(=O)N3CCC[C@H]3C(=O)N3CCCC[C@H]3C(=O)N[C@@H](C)C(=O)N2C1 | ≤ 0.0625 µg/mL | 0.125 µg/mL (≈ 0.16 µM) | > 128 µg/mL | ≤ 0.0625 µg/mL | > 128 µg/mL | 0.0625 µg/mL (≈ 0.0798 µM) | 0.0078 µg/mL (≈ 0.00996 µM) | 0.0078 µg/mL (≈ 0.00996 µM) | 0.125 µg/mL (≈ 0.16 µM) | 0.25 µg/mL (≈ 0.319 µM) | > 128 µg/mL | ≤ 0.0625 µg/mL
3 | CCCC/C=C/C(=O)N[C@@H](Cc1cc(F)cc(F)c1)C(=O)N[C@@H]1C(=O)N2CCC[C@H]2C(=O)N2CCCC[C@H]2C(=O)N[C@@H](C)C(=O)N2CCC[C@H]2C(=O)O[C@H]1C | ≤ 0.0625 µg/mL | 0.125 µg/mL (≈ 0.162 µM) | > 128 µg/mL | ≤ 0.0625 µg/mL | > 128 µg/mL | 0.0625 µg/mL (≈ 0.0811 µM) | 0.0078 µg/mL (≈ 0.0101 µM) | 0.0078 µg/mL (≈ 0.0101 µM) | 0.125 µg/mL (≈ 0.162 µM) | 0.25 µg/mL (≈ 0.324 µM) | > 128 µg/mL | ≤ 0.0625 µg/mL
4 | CN[C@@H](CC(C)C)C(=O)N[C@H]1C(=O)N[C@@H](CC(N)=O)C(=O)N[C@H]2C(=O)N[C@H]3C(=O)N[C@H](C(=O)N[C@@H](C(=O)O)c4cc(O)cc(O)c4-c4cc3ccc4O)[C@H](O)c3ccc(c(Cl)c3)Oc3cc2cc(c3O[C@H]2O[C@@H](CO)[C@H](O)[C@@H](O)[C@@H]2O[C@@H]2C[C@@](C)(N)[C@@H](O)[C@@H](C)O2)Oc2ccc(cc2Cl)[C@H]1O | 0.16 µg/mL (≈ 0.11 µM) | 1.3 µg/mL (≈ 0.897 µM) | – | 0.25 µg/mL (≈ 0.173 µM) | – | – | – | – | – | – | – | 1 µg/mL (≈ 0.69 µM)
5 | CCCC/C=C/C(=O)N[C@@H](Cc1ccc2ccccc2c1)C(=O)N[C@H]1COC(=O)[C@@H]2C[C@@H](C)CN2C(=O)[C@H](CC)NC(=O)[C@@H]2CCCCN2C(=O)[C@@H]2CCCN2C1=O ({Heptenoyl(2E)}-[2Nal]SP[Pip][Abu][Pro(4R-Me)]; ester 2-C) | 128 µg/mL (≈ 160 µM) | > 128 µg/mL | > 128 µg/mL | 2 µg/mL (≈ 2.5 µM) | > 128 µg/mL | > 128 µg/mL | 32 µg/mL (≈ 40.1 µM) | > 128 µg/mL | > 128 µg/mL | 32 µg/mL (≈ 40.1 µM) | > 128 µg/mL | 0.5 µg/mL (≈ 0.626 µM)
6 | CCCC/C=C/C(=O)N[C@@H](Cc1csc2ccccc12)C(=O)N[C@H]1COC(=O)[C@@H]2C[C@@H](C)CN2C(=O)[C@H](CC)NC(=O)[C@@H]2CCCCN2C(=O)[C@@H]2CCCN2C1=O ({Heptenoyl(2E)}-[Bta]SP[Pip][Abu][Pro(4R-Me)]; ester 2-C) | 8 µg/mL (≈ 9.94 µM) | > 128 µg/mL | > 128 µg/mL | 8 µg/mL (≈ 9.94 µM) | > 128 µg/mL | 8 µg/mL (≈ 9.94 µM) | 8 µg/mL (≈ 9.94 µM) | 8 µg/mL (≈ 9.94 µM) | > 128 µg/mL | 32 µg/mL (≈ 39.8 µM) | > 128 µg/mL | 0.125 µg/mL (≈ 0.155 µM)
7 | CCCC/C=C/C(=O)N[C@@H](CC1CCCCC1)C(=O)N[C@H]1COC(=O)[C@@H]2C[C@@H](C)CN2C(=O)[C@H](CC)NC(=O)[C@@H]2CCCCN2C(=O)[C@@H]2CCCN2C1=O ({Heptenoyl(2E)}-[Cha]SP[Pip][Abu][Pro(4R-Me)]; ester 2-C) | 2 µg/mL (≈ 2.65 µM) | 4 µg/mL (≈ 5.3 µM) | > 128 µg/mL | 0.5 µg/mL (≈ 0.662 µM) | > 128 µg/mL | 1 µg/mL (≈ 1.32 µM) | 1 µg/mL (≈ 1.32 µM) | 1 µg/mL (≈ 1.32 µM) | 32 µg/mL (≈ 42.4 µM) | 32 µg/mL (≈ 42.4 µM) | > 128 µg/mL | ≤ 0.0625 µg/mL
